This note sets out measurements from ChEMBL document CHEMBL4002568, “Synthesis, alkaline phosphatase inhibition studies and molecular docking of novel derivatives of 4-quinolones” (Eur J Med Chem, 2017).

Experiment [1] addresses Intestinal-type alkaline phosphatase (Bos taurus, UniProt P19111). Briefly: Inhibition of calf intestinal alkaline phosphatase using CDP-star as substrate preincubated for 5 to 7 mins followed by substrate addition measured after 15 mins by spectrophotometric method.
Experiment [2] has as its target T1, Alkaline phosphatase, tissue-nonspecific isozyme (Bos taurus, UniProt P09487).
T1 sequence (P09487 whole entry): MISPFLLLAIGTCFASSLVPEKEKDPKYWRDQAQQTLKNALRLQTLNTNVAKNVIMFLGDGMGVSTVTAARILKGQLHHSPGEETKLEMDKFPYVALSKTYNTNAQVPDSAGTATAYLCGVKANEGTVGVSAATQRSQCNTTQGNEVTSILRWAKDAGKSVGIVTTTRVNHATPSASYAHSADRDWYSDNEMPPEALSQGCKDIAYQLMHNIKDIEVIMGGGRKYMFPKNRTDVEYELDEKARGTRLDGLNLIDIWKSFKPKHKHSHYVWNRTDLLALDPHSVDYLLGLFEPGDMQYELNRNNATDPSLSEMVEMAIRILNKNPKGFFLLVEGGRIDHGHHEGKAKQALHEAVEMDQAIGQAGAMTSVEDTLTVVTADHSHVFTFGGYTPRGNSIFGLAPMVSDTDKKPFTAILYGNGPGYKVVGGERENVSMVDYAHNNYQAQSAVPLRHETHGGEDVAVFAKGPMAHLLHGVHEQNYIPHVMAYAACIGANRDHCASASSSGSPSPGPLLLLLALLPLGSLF
Briefly: Inhibition of bovine TNAP using CDP-star as substrate preincubated for 5 to 7 mins followed by substrate addition measured after 15 mins by spectrophotometric method.

The target of experiment [3] is Intestinal-type alkaline phosphatase (Bos taurus) (UniProt P19111). Briefly: Inhibition of calf intestinal alkaline phosphatase at 0.2 mM using CDP-star as substrate preincubated for 5 to 7 mins followed by substrate addition measured after 15 mins by spectrophotometric method.
Experiment [4] shares this target. Briefly: Potency index, ratio of L-phenylalanine IC50 to test compound IC50 for calf intestinal alkaline phosphatase.
Experiment [5] has as its target T2, Alkaline phosphatase, tissue-nonspecific isozyme (Bos taurus) (UniProt P09487).
T2 sequence (whole entry): T1 sequence (P09487 whole entry)
Briefly: Inhibition of bovine TNAP at 0.2 mM using CDP-star as substrate preincubated for 5 to 7 mins followed by substrate addition measured after 15 mins by spectrophotometric method.

Chain of Intestinal-type alkaline phosphatase (P19111 whole entry): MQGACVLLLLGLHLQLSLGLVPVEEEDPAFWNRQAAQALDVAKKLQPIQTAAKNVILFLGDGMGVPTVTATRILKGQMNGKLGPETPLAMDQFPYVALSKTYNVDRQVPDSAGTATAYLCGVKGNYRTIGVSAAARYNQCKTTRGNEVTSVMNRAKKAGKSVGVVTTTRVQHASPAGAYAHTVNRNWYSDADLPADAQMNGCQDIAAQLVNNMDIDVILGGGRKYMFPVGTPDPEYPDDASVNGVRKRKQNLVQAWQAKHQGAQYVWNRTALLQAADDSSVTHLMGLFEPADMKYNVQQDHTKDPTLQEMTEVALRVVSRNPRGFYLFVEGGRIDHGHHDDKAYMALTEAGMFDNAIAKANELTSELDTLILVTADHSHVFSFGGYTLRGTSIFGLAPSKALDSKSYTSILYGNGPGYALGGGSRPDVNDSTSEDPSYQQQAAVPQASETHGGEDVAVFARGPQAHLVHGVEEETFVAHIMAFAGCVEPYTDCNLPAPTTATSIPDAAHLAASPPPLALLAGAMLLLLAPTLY
Chain of Intestinal-type alkaline phosphatase (Bos taurus) (P19111 20-506 limits assumed): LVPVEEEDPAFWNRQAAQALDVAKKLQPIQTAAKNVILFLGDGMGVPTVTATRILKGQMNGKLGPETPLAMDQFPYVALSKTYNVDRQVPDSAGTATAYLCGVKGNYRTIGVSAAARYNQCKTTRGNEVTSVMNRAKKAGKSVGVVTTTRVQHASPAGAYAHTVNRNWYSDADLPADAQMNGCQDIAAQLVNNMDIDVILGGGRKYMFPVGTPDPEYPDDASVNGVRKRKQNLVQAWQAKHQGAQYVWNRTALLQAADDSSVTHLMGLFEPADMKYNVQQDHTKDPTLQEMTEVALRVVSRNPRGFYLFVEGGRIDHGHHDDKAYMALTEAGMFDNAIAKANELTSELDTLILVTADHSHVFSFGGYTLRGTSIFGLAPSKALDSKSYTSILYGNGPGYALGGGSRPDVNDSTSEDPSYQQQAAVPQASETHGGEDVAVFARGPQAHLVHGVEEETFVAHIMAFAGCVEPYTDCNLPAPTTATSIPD

Regarding `CCc1ccc(-c2c(-c3ccc(C)cc3)n(Cc3ccc(OC)cc3)c3ccc([N+](=O)[O-])cc3c2=O)cc1`, the values for the IC50 in experiment [1] and in experiment [2] were 5.75 µM and 1.66 µM, respectively.

For `CCCCCc1cc(=O)c2cc([N+](=O)[O-])ccc2n1Cc1ccc(OC)cc1`, the IC50 (as a rule, the concentration needed to halve the response being measured) was determined as 1.38 µM in experiment [1] and 1.51 µM in experiment [2].

`Cc1ccc(-c2[nH]c3ccc([N+](=O)[O-])cc3c(=O)c2-c2ccc(C(F)(F)F)cc2)cc1`: the values for the half-inhibitory concentration (IC50) in experiment [1] and in experiment [2] were 4.38 µM and 2.69 µM, respectively.

Consider `Cc1ccc(-c2c(Br)c(=O)c3cc([N+](=O)[O-])ccc3n2C(C)c2ccccc2)cc1` (stereo not drawn), for which the IC50 in experiment [1] amounted to 2.47 µM; in experiment [2] it was 1.34 µM.

As to `COc1ccc(Cn2c(-c3ccc(C)cc3)c(C(F)(F)F)c(=O)c3cc([N+](=O)[O-])ccc32)cc1`, the values for the IC50 in experiment [1] and in experiment [2] were 4.58 µM and 4.53 µM, respectively.

On to `COc1ccc(Cn2c(-c3ccc(C)cc3)c(-c3ccc(C)cc3)c(=O)c3cc(N)ccc32)cc1`, for which half-maximal inhibition in experiment [2] (IC50) required 15.1 µM. The inhibition (in general, how much of the control response was suppressed) in experiment [3] was 38.7%.

For `COc1ccc(Cn2c(-c3ccc(C)cc3)cc(=O)c3cc([N+](=O)[O-])ccc32)cc1`, the IC50 in experiment [2] was 133 µM. The inhibition in experiment [3] came to 48.6%.

In the case of `Cc1ccc(-c2[nH]c3ccc(NC(=O)C(F)(F)F)cc3c(=O)c2-c2ccc(C)cc2)cc1`, the values for the IC50 in experiment [1] and in experiment [2] were 1.67 µM and 6.02 µM, respectively.

Take `COc1ccc(-c2c(-c3ccc(C)cc3)[nH]c3ccc(N)cc3c2=O)cc1`: the 50% inhibitory concentration (IC50) in experiment [1] came out at 1.06 µM; in experiment [2], 14.8 µM.

On to `COc1ccc(Cn2c(-c3ccc(C)cc3)c(-c3ccc(C(F)(F)F)cc3)c(=O)c3cc([N+](=O)[O-])ccc32)cc1`, for which the IC50 in experiment [1] was 8.34 µM; in experiment [2], 6.19 µM.

With `Cc1ccc(-c2[nH]c3ccc([N+](=O)[O-])cc3c(=O)c2Br)cc1`, the values for the IC50 in experiment [1] and in experiment [2] were 12.1 µM and 6.47 µM, respectively.

Compound `CCCCCc1c(-c2ccc(C(F)(F)F)cc2)c(=O)c2cc([N+](=O)[O-])ccc2n1Cc1ccc(OC)cc1` gave an IC50 in experiment [2] of 38.5 µM. For the same compound, the inhibition in experiment [3] turned out to be 48.6%.

As for `CCCCCc1[nH]c2ccc([N+](=O)[O-])cc2c(=O)c1Br`, the results for the 50% inhibitory concentration (IC50) in experiment [1] and in experiment [2] were 3.06 µM and 17.2 µM, respectively.

In turn, `COc1ccc(Cn2c(-c3ccc(C)cc3)c(-c3ccc(OC)cc3)c(=O)c3cc([N+](=O)[O-])ccc32)cc1` displayed a half-maximal inhibitory concentration (IC50) in experiment [1] of 2.04 µM. The Ratio IC50 in experiment [4] came out at 40. For the same compound, the inhibition in experiment [5] is 46.8%.

Consider `COc1ccc(Cn2c(-c3ccc(C)cc3)c(Br)c(=O)c3cc([N+](=O)[O-])ccc32)cc1`, for which the IC50 was 2.43 µM in experiment [1] and 4.22 µM in experiment [2].

On to `COc1ccc(C(C)n2c(-c3ccc(C)cc3)cc(=O)c3cc([N+](=O)[O-])ccc32)cc1` (stereo not drawn), for which the half-maximal inhibitory concentration (IC50) is 4.75 µM in experiment [1] and 17.9 µM in experiment [2].

On to `COc1ccc(Cn2c(-c3ccc(C)cc3)c(-c3cc(C)cc(C)c3)c(=O)c3cc([N+](=O)[O-])ccc32)cc1`, for which the half-inhibitory concentration (IC50) in experiment [1] amounted to 28.7 µM; in experiment [2] it was 4.74 µM.

As for `CCCCCc1cc(=O)c2cc([N+](=O)[O-])ccc2[nH]1`, the values for the half-inhibitory concentration (IC50) in experiment [1] and in experiment [2] were 16.7 µM and 44.8 µM, respectively.

For `Cc1ccc(-c2cc(=O)c3cc(N)ccc3[nH]2)cc1`, the 50% inhibitory concentration (IC50) in experiment [1] turned out to be 16.2 µM; in experiment [2], 19.4 µM.

With `CCCCCc1c(Br)c(=O)c2cc([N+](=O)[O-])ccc2n1Cc1ccc(OC)cc1`, the IC50 was 122 µM in experiment [1] and 9.51 µM in experiment [2].

As for `COc1ccc(Cn2c(-c3ccc(C)cc3)c(-c3ccccc3C=O)c(=O)c3cc([N+](=O)[O-])ccc32)cc1`, the IC50 in experiment [1] was determined as 192 µM; in experiment [2], 2.35 µM.

`COc1ccc(Cn2c(-c3ccc(C)cc3)c(-c3ccc(C)cc3)c(=O)c3cc([N+](=O)[O-])ccc32)cc1` returned an IC50 in experiment [1] of 2.92 µM. The Ratio IC50 in experiment [4] was found to be 40. In experiment [5], this compound yielded an inhibition of 46.1%.

For the compound `Cc1ccc(-c2cc(=O)c3cc([N+](=O)[O-])ccc3[nH]2)cc1`, the IC50 in experiment [1] worked out at 6.25 µM; in experiment [2] it was 2.56 µM.
